pIC50: −log10 of the molar value.
biological target: human PDE10A (Homo sapiens (Human), UniProt Q9Y233); assay: human PDE10A full length Scintillation Proximity Assay (SPA); type: biochemical; conditions: 50 nM cGMP and 50 nM [3H]-cGMP, 20 minutes at room temperature; read-out: PDE10A inhibition IC50
Description: The following test was carried out in order to determine the activity of the compounds of the present invention.
The human PDE10A full length assay was performed in 96-well micro titer plates. […] Non-specific activity was tested without the enzyme. The reaction was initiated by the addition of the substrate solution (cGMP and [^3H]-cGMP) and allowed to progress for 20 minutes at room temperature. The reaction was terminated by adding 25 μl of YSi-SPA scintillation beads (GE Healthcare, cat. # RPNQ0150) in 18 mM zinc sulphate solution (stop reagent). After 1 h under shaking, the plate was centrifuged one minute at 170 g to allow beads to settle. Afterwards, radioactive counts were measured on a Perkin Elmer TopCount Scintillation plate reader.

Chain of human PDE10A (Q9Y233 other isoform, or with tags, fused parts or gaps): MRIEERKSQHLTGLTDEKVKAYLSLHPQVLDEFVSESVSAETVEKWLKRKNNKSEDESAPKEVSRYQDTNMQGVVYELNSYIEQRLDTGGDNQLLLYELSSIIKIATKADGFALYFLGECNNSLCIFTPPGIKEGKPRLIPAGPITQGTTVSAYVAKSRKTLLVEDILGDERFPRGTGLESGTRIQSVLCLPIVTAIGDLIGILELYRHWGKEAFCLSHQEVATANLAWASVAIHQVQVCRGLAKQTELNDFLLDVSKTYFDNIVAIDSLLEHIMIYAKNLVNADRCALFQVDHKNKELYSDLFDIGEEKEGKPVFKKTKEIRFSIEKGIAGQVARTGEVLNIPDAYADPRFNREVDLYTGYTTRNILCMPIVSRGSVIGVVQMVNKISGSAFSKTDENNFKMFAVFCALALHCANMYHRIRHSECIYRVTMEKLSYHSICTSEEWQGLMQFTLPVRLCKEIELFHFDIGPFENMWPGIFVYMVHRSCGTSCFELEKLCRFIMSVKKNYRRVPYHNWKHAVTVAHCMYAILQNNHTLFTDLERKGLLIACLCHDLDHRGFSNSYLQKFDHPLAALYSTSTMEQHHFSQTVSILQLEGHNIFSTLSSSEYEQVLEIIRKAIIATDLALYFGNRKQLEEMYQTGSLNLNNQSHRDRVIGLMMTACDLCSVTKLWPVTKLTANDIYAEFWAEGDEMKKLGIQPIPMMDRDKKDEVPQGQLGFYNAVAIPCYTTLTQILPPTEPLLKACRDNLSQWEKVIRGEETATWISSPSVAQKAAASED

Structure (SMILES)	pIC50
CC(C)(O)CNC(=O)c1ccncc1NC(=O)c1nc(C2CC2)ccc1Nc1cncnc1 [Example 70, 6-Cyclopropyl-3-(pyrimidin-5-ylamino)-pyridine-2-carboxylic acid [4-(2-hydroxy-2-methyl-propylcarbamoyl)-pyridin-3-yl]-amide]	8.68
CC(C)(O)CNC(=O)c1cc(F)c(F)cc1NC(=O)c1nc(C2CC2)cnc1Nc1cncnc1 [Example 110, 6-Cyclopropyl-3-(pyrimidin-5-ylamino)-pyrazine-2-carboxylic acid [4,5-difluoro-2-(2-hydroxy-2-methyl-propylcarbamoyl)-phenyl]-amide]	9.22
CNC(=O)c1nn(C)cc1NC(=O)c1nc(C(C)(C)C)ncc1Nc1cncnc1 [Example 77, 2-tert-Butyl-5-(pyrimidin-5-ylamino)-pyrimidine-4-carboxylic acid (1-methyl-3-methylcarbamoyl-1H-pyrazol-4-yl)-amide]	8.47
O=C(Nc1cnccc1C(=O)N1CCCC1)c1nc(C2CC2)ccc1Nc1cncnc1 [Example 22, 6-Cyclopropyl-3-(pyrimidin-5-ylamino)-pyridine-2-carboxylic acid [4-(pyrrolidine-1-carbonyl)-pyridin-3-yl]-amide]	7.73
CN(CC(C)(C)O)C(=O)c1ncccc1NC(=O)c1nc(C2CC2)cnc1Nc1cncnc1 [Example 123, 6-Cyclopropyl-3-(pyrimidin-5-ylamino)-pyrazine-2-carboxylic acid {2-[(2-hydroxy-2-methyl-propyl)-methyl-carbamoyl]-pyridin-3-yl}-amide]	8.02
CC(C)N(C)C(=O)c1nn(C)cc1NC(=O)c1nc(C2CC2)ccc1Nc1cncnc1 [Example 20, 6-Cyclopropyl-3-(pyrimidin-5-ylamino)-pyridine-2-carboxylic acid [3-(isopropyl-methyl-carbamoyl)-1-methyl-1H-pyrazol-4-yl]-amide]	7.66
O=C(NC1CCOC1)c1ccncc1NC(=O)c1nc(C2CC2)cnc1Nc1cncnc1 (stereo not shown) [Example 100, 6-Cyclopropyl-3-(pyrimidin-5-ylamino)-pyrazine-2-carboxylic acid [4-(tetrahydro-furan-3-ylcarbamoyl)-pyridin-3-yl]-amide]	8.60
CC(CO)NC(=O)c1ccncc1NC(=O)c1nc(C2CC2)ccc1Nc1cncnc1 (stereo not shown) [Example 66, 6-Cyclopropyl-3-(pyrimidin-5-ylamino)-pyridine-2-carboxylic acid [4-(2-hydroxy-1-methyl-ethylcarbamoyl)-pyridin-3-yl]-amide]	7.32
Cn1cc(NC(=O)c2nc(C3CC3)ccc2Nc2cncnc2)c(C(=O)NC2CCC2)n1 [Example 33, 6-Cyclopropyl-3-(pyrimidin-5-ylamino)-pyridine-2-carboxylic acid (3-cyclobutylcarbamoyl-1-methyl-1H-pyrazol-4-yl)-amide]	8.51
CNC(=O)c1c(NC(=O)c2nc(C3CC3)ccc2Nc2cncnc2)cnn1CCOC [Example 11, 6-Cyclopropyl-3-(pyrimidin-5-ylamino)-pyridine-2-carboxylic acid [1-(2-methoxy-ethyl)-5-methylcarbamoyl-1H-pyrazol-4-yl]-amide]	8.92
CNC(=O)c1ccccc1NC(=O)c1nc(C2CC2)ccc1Nc1cncnc1 [Example 29, 6-Cyclopropyl-3-(pyrimidin-5-ylamino)-pyridine-2-carboxylic acid (2-methylcarbamoyl-phenyl)-amide]	8.89
Cn1cc(NC(=O)c2nc(C3CC3)ccc2Nc2cncnc2)c(C(=O)NC2CC2)n1 [Example 31, 6-Cyclopropyl-3-(pyrimidin-5-ylamino)-pyridine-2-carboxylic acid (3-cyclopropylcarbamoyl-1-methyl-1H-pyrazol-4-yl)-amide]	8.51
CNC(=O)c1nn(-c2ccccc2)cc1NC(=O)c1nc(C2CC2)ccc1Nc1cncnc1 [Example 25, 6-Cyclopropyl-3-(pyrimidin-5-ylamino)-pyridine-2-carboxylic acid (3-methylcarbamoyl-1-phenyl-1H-pyrazol-4-yl)-amide]	5.73
Cn1cc(NC(=O)c2nc(C3CC3)ccc2Nc2cncnc2)c(C(=O)N2CC(O)C2)n1 [Example 50, 6-Cyclopropyl-3-(pyrimidin-5-ylamino)-pyridine-2-carboxylic acid [3-(3-hydroxy-azetidine-1-carbonyl)-1-methyl-1H-pyrazol-4-yl]-amide]	7.50
Cn1cc(NC(=O)c2nc(C3CC3)ccc2Nc2cncnc2)c(C(=O)NC2CCCC2)n1 [Example 34, 6-Cyclopropyl-3-(pyrimidin-5-ylamino)-pyridine-2-carboxylic acid (3-cyclopentylcarbamoyl-1-methyl-1H-pyrazol-4-yl)-amide]	8.35

Next, values leading:

pIC50	Structure (SMILES)
6.37	CNC(=O)c1c(NC(=O)c2nc(C3CC3)cnc2Nc2cnccn2)cnn1C [Example 200, 6-Cyclopropyl-3-(pyrazin-2-ylamino)-pyrazine-2-carboxylic acid (1-methyl-5-methylcarbamoyl-1H-pyrazol-4-yl)-amide]
8.09	CNC(=O)c1c(NC(=O)c2nc(C(C)C)ncc2Nc2cccnc2)cnn1C [Example 186, 2-Isopropyl-5-(pyridin-3-ylamino)-pyrimidine-4-carboxylic acid (1-methyl-5-methylcarbamoyl-1H-pyrazol-4-yl)-amide]
8.85	CNC(=O)c1c(NC(=O)c2nc(C(C)C)cnc2Nc2cncnc2)cnn1C [Example 131, 6-Isopropyl-3-(pyrimidin-5-ylamino)-pyrazine-2-carboxylic acid (1-methyl-5-methylcarbamoyl-1H-pyrazol-4-yl)-amide]
8.96	CC(C)(O)CNC(=O)c1c(F)cc(F)cc1NC(=O)c1nc(C2CC2)cnc1Nc1cncnc1 [Example 324, 6-Cyclopropyl-3-(pyrimidin-5-ylamino)-pyrazine-2-carboxylic acid [3,5-difluoro-2-(2-hydroxy-2-methyl-propylcarbamoyl)-phenyl]-amide]
9.40	CNC(=O)c1cc(CCC(=O)O)ccc1NC(=O)c1nc(C2CC2)cnc1Nc1cncnc1 [Example 328, 3-(4-{[6-Cyclopropyl-3-(pyrimidin-5-ylamino)-pyrazine-2-carbonyl]-amino}-3-methylcarbamoyl-phenyl)-propionic acid]
6.90	CNC(=O)c1c(NC(=O)c2nc(OCC(F)(F)F)ncc2Nc2cncnc2)cnn1C [Example 337, 5-(Pyrimidin-5-ylamino)-2-(2,2,2-trifluoro-ethoxy)-pyrimidine-4-carboxylic acid (1-methyl-5-methylcarbamoyl-1H-pyrazol-4-yl)-amide]
8.41	CCNC(=O)c1c(NC(=O)c2nc(C3CC3)cnc2Nc2cncnc2)cnn1C [Example 197, 6-Cyclopropyl-3-(pyrimidin-5-ylamino)-pyrazine-2-carboxylic acid (5-ethylcarbamoyl-1-methyl-1H-pyrazol-4-yl)-amide]
8.07	Cn1ncc(NC(=O)c2nc(C3CC3)cnc2Nc2cncnc2)c1C(N)=O [Example 150, 6-Cyclopropyl-3-(pyrimidin-5-ylamino)-pyrazine-2-carboxylic acid (5-carbamoyl-1-methyl-1H-pyrazol-4-yl)-amide]
9.22	Cc1ncc(NC(=O)c2nc(C3CC3)cnc2Nc2cncnc2)c(C(=O)NCC(C)(C)O)n1 [Example 281, 5-{[6-Cyclopropyl-3-(pyrimidin-5-ylamino)-pyrazine-2-carbonyl]-amino}-2-methyl-pyrimidine-4-carboxylic acid (2-hydroxy-2-methyl-propyl)-amide]
8.42	CCn1ncc(NC(=O)c2nc(C3CC3)cnc2Nc2cncnc2)c1C(=O)NCC(C)C [Example 202, 6-Cyclopropyl-3-(pyrimidin-5-ylamino)-pyrazine-2-carboxylic acid (1-ethyl-5-isobutylcarbamoyl-1H-pyrazol-4-yl)-amide]
8.54	CNC(=O)c1c(NC(=O)c2nc(C3CCOC3)cnc2Nc2cncnc2)cnn1C (stereo not shown) [Example 160, 3-(Pyrimidin-5-ylamino)-6-(tetrahydro-furan-3-yl)-pyrazine-2-carboxylic acid (1-methyl-5-methylcarbamoyl-1H-pyrazol-4-yl)-amide]
8.25	CC(C)(CO)NC(=O)c1ccncc1NC(=O)c1nc(C2CC2)cnc1Nc1cncnc1 [Example 125, 6-Cyclopropyl-3-(pyrimidin-5-ylamino)-pyrazine-2-carboxylic acid [4-(2-hydroxy-1,1-dimethyl-ethylcarbamoyl)-pyridin-3-yl]-amide]
7.65	CCn1ncc(NC(=O)c2nc(C3CC3)cnc2Nc2cncnc2)c1C(=O)N(C)C [Example 169, 6-Cyclopropyl-3-(pyrimidin-5-ylamino)-pyrazine-2-carboxylic acid (5-dimethylcarbamoyl-1-ethyl-1H-pyrazol-4-yl)-amide]
7.79	O=C(Nc1cccnc1C(=O)N1CCCCC1)c1nc(C2CC2)cnc1Nc1cncnc1 [Example 195, 6-Cyclopropyl-3-(pyrimidin-5-ylamino)-pyrazine-2-carboxylic acid [2-(piperidine-1-carbonyl)-pyridin-3-yl]-amide]
6.47	CN(C)C(=O)c1ccc(F)c(F)c1NC(=O)c1nc(C2CC2)cnc1Nc1cncnc1 [Example 325, 6-Cyclopropyl-3-(pyrimidin-5-ylamino)-pyrazine-2-carboxylic acid (6-dimethylcarbamoyl-2,3-difluoro-phenyl)-amide]
7.47	CCN(C)C(=O)c1c(NC(=O)c2nc(C3CC3)cnc2Nc2cncnc2)cnn1C [Example 203, 6-Cyclopropyl-3-(pyrimidin-5-ylamino)-pyrazine-2-carboxylic acid [5-(ethyl-methyl-carbamoyl)-1-methyl-1H-pyrazol-4-yl]-amide]

— US8703768B2, “Nitrogen containing heteroaryl compounds” (Hoffmann-La Roche Inc., priority 2010, dated 2014)
